The values that follow come from ChEMBL document CHEMBL4316646, “Strepantibins A-C: Hexokinase II Inhibitors from a Mud Dauber Wasp Associated Streptomyces sp” (J Nat Prod, 2019).

By IC50 is commonly meant the point on the concentration scale where inhibition reaches its midpoint. The Km is the concentration of substrate that gives half-maximal velocity.

Counter-ions that a name gives are not always drawn. Active and inactive are the calls of the source. The rule behind the calls is not given here.

Data set [1] has as its system HepG2. Briefly: Cytotoxicity against human HepG2 cells assessed as reduction in cell viability by MTT assay. The data set is classed as functional, cell-based. For orientation: Tetrazolium dyes change colour on reduction, which living cells bring about.
Data set [2] concerns SMMC-7721. Briefly: Induction of apoptosis in human SMMC7721 cells assessed as formation of apoptotic bodies at 0.5 to 8 uM measured after 24 hrs by DAPI staining based fluorescence microscopic analysis. The data set is classed as functional, cell-based.
The test system of data set [3] is SMMC-7721. Briefly: Induction of apoptosis in human SMMC7721 cells assessed as chromatin […] at 0.5 to 8 uM measured after 24 hrs by DAPI staining based fluorescence microscopic analysis. It counts as functional, cell-based.
For data set [4], the system named is SMMC-7721. Briefly: Cytotoxicity against human SMMC7721 cells assessed as reduction in cell viability by MTT assay. The data set is classed as functional, cell-based.
Data set [5] has as its system L02. Briefly: Cytotoxicity against human LO2 cells assessed as reduction in cell viability by MTT assay. The data set is classed as ADME, cell-based.
For data set [6], the target named is T1, Hexokinase-2 (Homo sapiens, UniProt P52789).
T1 sequence (P52789 whole entry): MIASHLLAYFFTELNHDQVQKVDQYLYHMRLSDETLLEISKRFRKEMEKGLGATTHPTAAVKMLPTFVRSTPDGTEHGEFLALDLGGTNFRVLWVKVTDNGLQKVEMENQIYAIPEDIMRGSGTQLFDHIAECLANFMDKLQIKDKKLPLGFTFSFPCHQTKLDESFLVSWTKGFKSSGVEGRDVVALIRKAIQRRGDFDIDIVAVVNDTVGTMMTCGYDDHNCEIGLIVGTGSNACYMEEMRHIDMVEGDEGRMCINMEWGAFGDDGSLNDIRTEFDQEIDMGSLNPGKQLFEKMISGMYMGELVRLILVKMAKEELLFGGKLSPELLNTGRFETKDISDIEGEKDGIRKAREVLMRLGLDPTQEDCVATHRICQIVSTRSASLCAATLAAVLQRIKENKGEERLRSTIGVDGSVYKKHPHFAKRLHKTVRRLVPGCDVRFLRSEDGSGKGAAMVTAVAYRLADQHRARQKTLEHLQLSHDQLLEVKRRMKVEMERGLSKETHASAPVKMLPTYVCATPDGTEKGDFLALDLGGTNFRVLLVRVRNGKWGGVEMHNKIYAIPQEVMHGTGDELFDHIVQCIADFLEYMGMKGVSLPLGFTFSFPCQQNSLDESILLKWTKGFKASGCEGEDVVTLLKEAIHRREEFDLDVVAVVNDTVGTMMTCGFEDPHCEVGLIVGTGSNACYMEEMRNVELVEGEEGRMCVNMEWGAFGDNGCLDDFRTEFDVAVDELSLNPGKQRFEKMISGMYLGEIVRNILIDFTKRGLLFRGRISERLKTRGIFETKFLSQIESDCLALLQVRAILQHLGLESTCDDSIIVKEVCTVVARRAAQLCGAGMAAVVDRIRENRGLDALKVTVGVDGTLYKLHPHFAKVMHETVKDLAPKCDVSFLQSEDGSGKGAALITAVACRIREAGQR
The data set is described as follows: Inhibition of HK2 (unknown origin) using glucose-6-phosphate dehydrogenase as substrate preincubated for 10 mins followed by substrate addition.

Data set [7] deals with PLC-PRF-5. The data set is described as follows: Cytotoxicity against human PLC/PRF/5 cells assessed as reduction in cell viability by MTT assay. It counts as functional, cell-based.
Compound in data set [8]: CC1(C)N=C2C(c3ccccc3)=CC(=O)C(c3ccccc3)=C2O1
The data set is described as follows: (§1) Competitive-inhibition of HK2 (unknown origin) assessed as Km at 10 uM using varying levels of glucose-6-phosphate dehydrogenase as substrate by Lineweaver-burk plot analysis. The conditions noted are these: Homo sapiens.

Compound in data set [9]: COc1cc(-c2ccccc2)c(=O)c(C(C)=O)c(O)c1-c1ccccc1
Described as §1. The conditions noted are these: Homo sapiens.

Compound in data set [10]: COC1=C(c2ccccc2)C(=O)[C@@](O)(CC(C)=O)C(c2ccccc2)=C1
The data set is described as §1. The conditions noted are these: Homo sapiens.

With `COC1=C(c2ccccc2)C(=O)[C@@](O)(CC(C)=O)C(c2ccccc2)=C1`, the concentration for half-maximal inhibition (IC50) in data set [1] is 2.3 µM; in data set [4] it was 2.9 µM; in data set [5], 11.2 µM; in data set [6], 9.8 µM; in data set [7] it was 1.9 µM. Further, the outcome in data set [2] and in data set [3] was Active.
Regarding `CC1(C)N=C2C(c3ccccc3)=CC(=O)C(c3ccccc3)=C2O1`, the IC50 came out at 12.3 µM in [1]; 4.9 µM in data set [4]; 17.6 µM in data set [5]; 34.6 µM in [6]; 11.6 µM in data set [7].
As to `COc1cccc2c1C(=O)c1c(O)c3c(c(O)c1C2=O)C[C@@](O)(C(=O)CO)C[C@@H]3O[C@H]1C[C@H](N)[C@H](O)[C@H](C)O1` [DOXORUBICIN HYDROCHLORIDE], the IC50 in data set [1] came to 2.6 µM; in data set [4], 1.1 µM; in data set [5] it was 13.5 µM; in data set [7], 1.9 µM.
For the molecule `COc1cc(-c2ccccc2)c(=O)c(C(C)=O)c(O)c1-c1ccccc1`, the IC50 was 9.5 µM in [1]; 10.3 µM in data set [4]; 17.8 µM in data set [5]; 31.2 µM in data set [6]; 7.1 µM in [7].
On to `O=c1[nH]cc(F)c(=O)[nH]1` [FLUOROURACIL], for which the IC50 in data set [1] is 3.6 µM; in data set [4] it was 2.5 µM; in [5], 10.6 µM; in data set [7], 2.8 µM.

B1: Hexokinase-2 (Homo sapiens), P52789 (protein)
chain: MIASHLLAYFFTELNHDQVQKVDQYLYHMRLSDETLLEISKRFRKEMEKGLGATTHPTAAVKMLPTFVRSTPDGTEHGEFLALDLGGTNFRVLWVKVTDNGLQKVEMENQIYAIPEDIMRGSGTQLFDHIAECLANFMDKLQIKDKKLPLGFTFSFPCHQTKLDESFLVSWTKGFKSSGVEGRDVVALIRKAIQRRGDFDIDIVAVVNDTVGTMMTCGYDDHNCEIGLIVGTGSNACYMEEMRHIDMVEGDEGRMCINMEWGAFGDDGSLNDIRTEFDQEIDMGSLNPGKQLFEKMISGMYMGELVRLILVKMAKEELLFGGKLSPELLNTGRFETKDISDIEGEKDGIRKAREVLMRLGLDPTQEDCVATHRICQIVSTRSASLCAATLAAVLQRIKENKGEERLRSTIGVDGSVYKKHPHFAKRLHKTVRRLVPGCDVRFLRSEDGSGKGAAMVTAVAYRLADQHRARQKTLEHLQLSHDQLLEVKRRMKVEMERGLSKETHASAPVKMLPTYVCATPDGTEKGDFLALDLGGTNFRVLLVRVRNGKWGGVEMHNKIYAIPQEVMHGTGDELFDHIVQCIADFLEYMGMKGVSLPLGFTFSFPCQQNSLDESILLKWTKGFKASGCEGEDVVTLLKEAIHRREEFDLDVVAVVNDTVGTMMTCGFEDPHCEVGLIVGTGSNACYMEEMRNVELVEGEEGRMCVNMEWGAFGDNGCLDDFRTEFDVAVDELSLNPGKQRFEKMISGMYLGEIVRNILIDFTKRGLLFRGRISERLKTRGIFETKFLSQIESDCLALLQVRAILQHLGLESTCDDSIIVKEVCTVVARRAAQLCGAGMAAVVDRIRENRGLDALKVTVGVDGTLYKLHPHFAKVMHETVKDLAPKCDVSFLQSEDGSGKGAALITAVACRIREAGQR
Take B1: the Km was found to be 290 µM in [8], 310 µM in data set [9] and 430 µM in [10].
